± gives the expanded uncertainty stated by the source.
Conditions: Liquid, Closed cell (Static) method

CCO[Si](C)(Cl)Cl [dichloroethoxymethylsilane]
Conditions | vapor or sublimation pressure [kPa]
312.94 K | 11.32 ± 0.12
318.43 K | 14.32 ± 0.13
323.01 K | 17.32 ± 0.15
326.93 K | 20.32 ± 0.17
330.24 K | 23.32 ± 0.2
333.29 K | 26.32 ± 0.21
336.2 K | 29.32 ± 0.23
338.84 K | 32.33 ± 0.25
341.28 K | 35.33 ± 0.26
343.57 K | 38.33 ± 0.28
345.66 K | 41.33 ± 0.31
347.54 K | 44.33 ± 0.33
349.48 K | 47.33 ± 0.33
351.36 K | 50.33 ± 0.35
353.04 K | 53.33 ± 0.37
354.72 K | 56.33 ± 0.39
356.25 K | 59.33 ± 0.4
357.82 K | 62.33 ± 0.41
359.25 K | 65.33 ± 0.45
360.57 K | 68.33 ± 0.46
361.95 K | 71.33 ± 0.47
363.22 K | 74.33 ± 0.47
364.59 K | 77.33 ± 0.47
365.87 K | 80.33 ± 0.52
366.98 K | 83.33 ± 0.53
368.21 K | 86.33 ± 0.52
369.38 K | 89.33 ± 0.55
370.5 K | 92.33 ± 0.58
371.51 K | 95.33 ± 0.6
372.58 K | 98.33 ± 0.59
373.6 K | 101.27 ± 0.6

— the NIST ThermoML archive (doi:10.1021/je900511c)
